In publication PMC6332596 (Journal of Hematology & Oncology, 2019):
“Also recorded” adds a separate entry of the source. Where two headings read alike, the source gives them in different places.

Legend:
[1] = system: Aurora B; design: method as in PMID 28004478; settings: cited from earlier work
[2] = system: VEGFR3; design: method as in PMID 28004478; settings: cited from earlier work
[3] = system: CSF-1R; design: method as in PMID 28004478; settings: cited from earlier work
[4] = Pharmacokinetics of plasma chiauranib after single and multiple oral doses in patients (LC-MS/MS); assay type: in vivo, human
Protocol: Three milliliters of venous blood samples was drawn into heparinized tubes before drug administration as well as at 1, 2, 4, 6, 8, 12, 24, 48, 72, 96, 120, and 144 h post-dose. […] Three milliliters of venous blood samples was drawn into heparinized tubes before administration as well as at 1, 2, 4, 8, 12, and 24 h post the oral dose on day 28. […] Samples were centrifuged immediately at 3600×g for 10 min at 4 °C, and the plasma fractions were separated and stored at − 20 °C until analysis.
The intra- and inter-day precisions and accuracies (relative standard deviation, %RSD) were in the range of 1.75–6.33%, and − 7.88–9.00%, respectively. The extraction recovery (relative standard deviation, %RSD) was 1.32–5.16%.
Descriptive statistics were used for baseline characteristics, safety assessments, pharmacokinetic variables (including Cmax, Tmax, AUC, and t1/2) and exploratory efficacy assessments, including tumor response and time to progression. Continuous variables were summarized with means, standard deviations (SD), medians, minimums, and maximums. Categorical variables were summarized by counts and by percentage of patients in corresponding categories. P values < 0.05 were considered statistically significant. Statistical analyses were performed using SAS® v9.4 (Cary, NC).

[5] = system: off-target non-receptor kinases, proteins, GPCR, and ion channels; design: method as in PMID 28004478; settings: cited from earlier work
[6] = system: advanced solid tumor and lymphoma; assay: Tumor response by RECIST 1.1 in patients; assay type: in vivo, human
Protocol: Tumor response was evaluated by the Response Evaluation Criteria in Solid Tumors (RECIST) version 1.1. Tumor response was assessed by computed tomography (CT) and/or magnetic resonance imaging (MRI) scans at screening and every 8 weeks (2 cycles) during the first 12 cycles.

[7] = system: VEGFR2; design: method as in PMID 28004478; settings: cited from earlier work
[8] = system: c-Kit; design: method as in PMID 28004478; settings: cited from earlier work
[9] = system: VEGFR1; design: method as in PMID 28004478; settings: cited from earlier work
[10] = system: human tumor xenograft models inoculated with human cancer cell lines derived from colon, lung, liver, or stomach cancers; design: method as in PMID 28004478; settings: cited from earlier work
[11] = Day28, multiple dose 10 mg once daily (n = 2)
[12] = Day28, multiple dose 20 mg once daily (n = 6)
[13] = Day28, multiple dose 35 mg once daily (n = 3)
[14] = Day28, multiple dose 50 mg once daily (n = 3)
[15] = Day28, multiple dose 65 mg once daily (n = 4)
[16] = human, plasma, oral, 10 mg, Day1, single dose 10 mg (n = 2)
[17] = human, plasma, oral, 10 mg, Day28, multiple dose 10 mg once daily (n = 2)
[18] = human, plasma, oral, 20 mg, Day1, single dose 20 mg (n = 6)
[19] = human, plasma, oral, 20 mg, Day28, multiple dose 20 mg once daily (n = 6)
[20] = human, plasma, oral, 35 mg, Day1, single dose 35 mg (n = 3)
[21] = human, plasma, oral, 35 mg, Day28, multiple dose 35 mg once daily (n = 3)
[22] = human, plasma, oral, 50 mg, Day1, single dose 50 mg (n = 3)
[23] = human, plasma, oral, 50 mg, Day28, multiple dose 50 mg once daily (n = 3)
[24] = human, plasma, oral, 65 mg, Day1, single dose 65 mg (n = 4)
[25] = human, plasma, oral, 65 mg, Day28, multiple dose 65 mg once daily (n = 4)

For `COc1ccc2c(Oc3ccc4c(C(=O)Nc5ccccc5N)cccc4c3)ccnc2c1` [chiauranib], which IC50 [1] is on record?
Its IC50 is “single-digit nanomolar range”.

And the IC50 [2]?
The IC50 was “single-digit nanomolar range”.

What about the IC50 [3] of the same molecule?
The IC50 was “single-digit nanomolar range”.

What about the “dose dependence of plasma exposure” value ([4]; 10 to 65 mg, single and multiple dose) of the same molecule?
The value was “dose proportional and good linear pharmacokinetic profile”.

What about the Cav [4, 11] of the same molecule?
Its Cav is 174 (9) ng/mL.

And the Ctrough [4, 11]?
The Ctrough was 122 (21) ng/mL.

And the DF [4, 11]?
Its DF is 1.1 (0.4).

What about the Cav [4, 12] of the same molecule?
The Cav was 257 (64) ng/mL.

What about the Ctrough [4, 12] of the same molecule?
Its Ctrough is 191 (89) ng/mL.

And the DF [4, 12]?
Its DF is 1.3 (0.6).

What about the Cav [4, 13] of the same molecule?
Its Cav is 490 (336) ng/mL.

And the Ctrough [4, 13]?
Its Ctrough is 330 (208) ng/mL.

What about the DF [4, 13] of the same molecule?
Its DF is 0.8 (0.4).

And the Cav [4, 14]?
The Cav was 604 (235) ng/mL.

What about the Ctrough [4, 14] of the same molecule?
Its Ctrough is 467 (166) ng/mL.

And the DF [4, 14]?
The DF was 1.1 (0.3).

What about the Cav [4, 15] of the same molecule?
The Cav was 1010 (492) ng/mL.

And the Ctrough [4, 15]?
The Ctrough was 890 (662) ng/mL.

What about the DF [4, 15] of the same molecule?
Its DF is 1.5 (0.8).

And the median peak time ([4]; after first dose in run-in period, 10-65 mg, range from 1 to 4 h)?
The median peak time was 2 h.

What about the “increase of trough plasma concentration versus after first administration” value ([4]; continuous once daily dosing) of the same molecule?
Its value is “twofold”.

What about the Cmax [4, 16] of the same molecule?
The Cmax was 201 ng/mL.

What about the Tmax [4, 16] of the same molecule?
The Tmax was 2 h.

And the AUC(0-t) ([4]; human, plasma, oral, 10 mg, Day1, single dose 10 mg (n = 2), read-out: AUC0–24 h)?
Its AUC(0-t) is 2000 ng·h/mL.

What about the AUC(0-t) ([4]; human, plasma, oral, 10 mg, Day1, single dose 10 mg (n = 2), read-out: AUC0–144 h) of the same molecule?
The AUC(0-t) was 3580 ng·h/mL.

What about the Cmax [4, 17] of the same molecule?
Its Cmax is 312 ng/mL.

What about the Tmax [4, 17] of the same molecule?
The Tmax was 2 h.

What about the AUC(0-t) ([4]; human, plasma, oral, 10 mg, Day28, multiple dose 10 mg once daily (n = 2), read-out: AUC0–24 h) of the same molecule?
Its AUC(0-t) is 4180 ng·h/mL.

And the Cmax [4, 18]?
Its Cmax is 354 ng/mL.

And the Tmax [4, 18]?
Its Tmax is 2 h.

What about the AUC(0-t) ([4]; human, plasma, oral, 20 mg, Day1, single dose 20 mg (n = 6), read-out: AUC0–24 h) of the same molecule?
The AUC(0-t) was 3450 ng·h/mL.

And the AUC(0-t) ([4]; human, plasma, oral, 20 mg, Day1, single dose 20 mg (n = 6), read-out: AUC0–144 h)?
Its AUC(0-t) is 6820 ng·h/mL.

And the Cmax [4, 19]?
Its Cmax is 517 ng/mL.

What about the Tmax [4, 19] of the same molecule?
Its Tmax is 2 h.

What about the AUC(0-t) ([4]; human, plasma, oral, 20 mg, Day28, multiple dose 20 mg once daily (n = 6), read-out: AUC0–24 h) of the same molecule?
Its AUC(0-t) is 6180 ng·h/mL.

What about the Cmax [4, 20] of the same molecule?
The Cmax was 608 ng/mL.

And the Tmax [4, 20]?
The Tmax was 1 h.

And the AUC(0-t) ([4]; human, plasma, oral, 35 mg, Day1, single dose 35 mg (n = 3), read-out: AUC0–24 h)?
The AUC(0-t) was 5760 ng·h/mL.

What about the AUC(0-t) ([4]; human, plasma, oral, 35 mg, Day1, single dose 35 mg (n = 3), read-out: AUC0–144 h) of the same molecule?
The AUC(0-t) was 11900 ng·h/mL.

What about the Cmax [4, 21] of the same molecule?
The Cmax was 773 ng/mL.

And the Tmax [4, 21]?
Its Tmax is 4 h.

What about the AUC(0-t) ([4]; human, plasma, oral, 35 mg, Day28, multiple dose 35 mg once daily (n = 3), read-out: AUC0–24 h) of the same molecule?
Its AUC(0-t) is 11800 ng·h/mL.

And the Cmax [4, 22]?
The Cmax was 756 ng/mL.

What about the Tmax [4, 22] of the same molecule?
The Tmax was 1 h.

What about the AUC(0-t) ([4]; human, plasma, oral, 50 mg, Day1, single dose 50 mg (n = 3), read-out: AUC0–24 h) of the same molecule?
Its AUC(0-t) is 7420 ng·h/mL.

And the AUC(0-t) ([4]; human, plasma, oral, 50 mg, Day1, single dose 50 mg (n = 3), read-out: AUC0–144 h)?
The AUC(0-t) was 16400 ng·h/mL.

And the Cmax [4, 23]?
Its Cmax is 1120 ng/mL.

What about the Tmax [4, 23] of the same molecule?
The Tmax was 2 h.

What about the AUC(0-t) ([4]; human, plasma, oral, 50 mg, Day28, multiple dose 50 mg once daily (n = 3), read-out: AUC0–24 h) of the same molecule?
The AUC(0-t) was 14500 ng·h/mL.

What about the Cmax [4, 24] of the same molecule?
The Cmax was 1280 ng/mL.

What about the Tmax [4, 24] of the same molecule?
The Tmax was 1.5 h.

And the AUC(0-t) ([4]; human, plasma, oral, 65 mg, Day1, single dose 65 mg (n = 4), read-out: AUC0–24 h)?
The AUC(0-t) was 11000 ng·h/mL.

And the AUC(0-t) ([4]; human, plasma, oral, 65 mg, Day1, single dose 65 mg (n = 4), read-out: AUC0–144 h)?
The AUC(0-t) was 24800 ng·h/mL.

And the Cmax [4, 25]?
The Cmax was 2240 ng/mL.

And the Tmax [4, 25]?
The Tmax was 2 h.

What about the AUC(0-t) ([4]; human, plasma, oral, 65 mg, Day28, multiple dose 65 mg once daily (n = 4), read-out: AUC0–24 h) of the same molecule?
The AUC(0-t) was 24200 ng·h/mL.

And the half-life ([4]; human, plasma, oral, after first dose in run-in period, 10-65 mg, read-out: terminal half-life (t1/2) (converted))?
The half-life was 25.6 ± 6.73 h.

What about the activity on off-targets [5] of the same molecule?
Its activity on off-targets is “little activity”.

What about the “patients achieving SD among six with prior anti-angiogenic agents” value ([6]; 6/18 patients pretreated with anti-angiogenic agents) of the same molecule?
Its value is “five”.

And the “stable disease (SD) as best response” value ([6]; 12 of 18 patients, investigator's assessment)?
Its value is 66.7%.

And the “complete or partial response” value ([6]; 18 patients)?
The value was “No complete or partial responses were observed; also recorded: No partial or complete response was observed”.

And the “duration of confirmed SD” value ([6]; one patient with DLBCL, 10 mg cohort)?
The value was 596 days.

And the “change in the sum of the longest diameters of target lesions at best response” value ([6]; one patient with ovarian cancer (65 mg cohort))?
The value was 22.2%.

And the IC50 [7]?
Its IC50 is “single-digit nanomolar range”.

What about the IC50 [8] of the same molecule?
The IC50 was “single-digit nanomolar range”.

What about the IC50 [9] of the same molecule?
Its IC50 is “single-digit nanomolar range”.

What about the “activity against human tumor xenograft models” value [10] of the same molecule?
Its value is “broad activity”.
